The nature of series [1]: Rate of dissolution of rebaudioside A forms in H2O at 25° C. The series is classed as physicochemical.
The format of series [2] is physicochemical. On the procedure: A solution of rebaudioside A (>97% pure by HPLC) was prepared in double distilled water (12.5 gm in 50 mL, 25% concentration) by stirring the mixture at 40° C. for 5 minutes. An amorphous form of rebaudioside A was formed by immediately using the clear solution for spray drying with the Lab-Plant spray drier SD-04 instrument (Lab-Plant Ltd., West Yorkshire, U.K.). The solution was fed through the feed pump into the nozzle atomizer which atomized it into a spray of droplets with the help of a constant flow of nitrogen/air. […] This dry powder (11-12 g, H2O 6.74%) was discharged continuously from the drying chamber and was collected in a bottle.

The nature of series [3]: Sensory evaluation of sweetness linger and sugar-like taste by expert panel. Also noted: key: 0: no sweetness linger; 1: very slight sweetness linger; 2: slight sweetness linger; 3: moderate sweetness linger; 4: moderately high sweetness linger; 5: high sweetness linger. The series is classed as in vivo. On the procedure:
As used herein, the phrases “sugar-like characteristic,” “sugar-like taste,” “sugar-like sweet,” “sugary,” and “sugar-like” are synonymous. […] These characteristics are dimensions in which the taste of sucrose is different from the tastes of natural and synthetic high-potency sweeteners. Whether or not a characteristic is more sugar-like is determined by expert sensory panel assessments of sugar and compositions comprising at least one natural and/or synthetic high-potency sweetener, both with and without a sweet taste improving composition. Such assessments quantify similarities of the characteristics of compositions comprising at least one natural and/or synthetic high-potency sweetener, both with and without a sweet taste improving composition, with those comprising sugar. Suitable procedures for determining whether a composition has a more sugar-like taste are well known in the art.
In a particular embodiment, a panel of assessors is used to measure the reduction of sweetness linger. […] A decrease in score for a time point measured after the sample has cleared the mouth indicates there has been a reduction in sweetness perception. […]

The nature of series [4]: Sweetness level as sucrose equivalent.

For the compound `C=C1C[C@@]23CC[C@H]4[C@@](C)(CCC[C@@]4(C)C(=O)O[C@@H]4O[C@H](CO)[C@@H](O)[C@H](O)[C@H]4O)[C@@H]2CC[C@]1(O[C@@H]1O[C@H](CO)[C@@H](O)[C@H](O[C@@H]2O[C@H](CO)[C@@H](O)[C@H](O)[C@H]2O)[C@H]1O[C@@H]1O[C@H](CO)[C@@H](O)[C@H](O)[C@H]1O)C3` [Form 1, rebaudioside A], the “Rate of dissolution in H2O at 25° C.” value in series [1] (H2O, 25° C.) is on record as “(<0.2%/ %/60 minutes”; in series [1] (in words), “Very low”.

On to `C=C1C[C@@]23CC[C@H]4[C@@](C)(CCC[C@@]4(C)C(=O)O[C@@H]4O[C@H](CO)[C@@H](O)[C@H](O)[C@H]4O)[C@@H]2CC[C@]1(O[C@@H]1O[C@H](CO)[C@@H](O)[C@H](O[C@@H]2O[C@H](CO)[C@@H](O)[C@H](O)[C@H]2O)[C@H]1O[C@@H]1O[C@H](CO)[C@@H](O)[C@H](O)[C@H]1O)C3` [Form 2, rebaudioside A], for which the “Rate of dissolution in H2O at 25° C.” value in series [1] (H2O, 25° C.) is reported as “(<30%/ %/5 minutes”; in series [1] (in words) it was “Intermediate”.

For `C=C1C[C@@]23CC[C@H]4[C@@](C)(CCC[C@@]4(C)C(=O)O[C@@H]4O[C@H](CO)[C@@H](O)[C@H](O)[C@H]4O)[C@@H]2CC[C@]1(O[C@@H]1O[C@H](CO)[C@@H](O)[C@H](O[C@@H]2O[C@H](CO)[C@@H](O)[C@H](O)[C@H]2O)[C@H]1O[C@@H]1O[C@H](CO)[C@@H](O)[C@H](O)[C@H]1O)C3` [Form 3, rebaudioside A], the “Rate of dissolution in H2O at 25° C.” value is reported as “(>30%/ %/5 minutes” in series [1] (H2O, 25° C.) and “High” in series [1] (in words).

Consider `C=C1C[C@@]23CC[C@H]4[C@@](C)(CCC[C@@]4(C)C(=O)O[C@@H]4O[C@H](CO)[C@@H](O)[C@H](O)[C@H]4O)[C@@H]2CC[C@]1(O[C@@H]1O[C@H](CO)[C@@H](O)[C@H](O[C@@H]2O[C@H](CO)[C@@H](O)[C@H](O)[C@H]2O)[C@H]1O[C@@H]1O[C@H](CO)[C@@H](O)[C@H](O)[C@H]1O)C3` [Form 4, rebaudioside A], for which the “Rate of dissolution in H2O at 25° C.” value in series [1] (H2O, 25° C.) was “(>35.0%/ %/5 minutes”; in series [1] (in words), “High”. Moreover, in series [2], the Solubility in water was above 35.0%.

With `C=C1C[C@@]23CC[C@H]4[C@@](C)(CCC[C@@]4(C)C(=O)O[C@@H]4O[C@H](CO)[C@@H](O)[C@H](O)[C@H]4O)[C@@H]2CC[C@]1(O[C@@H]1O[C@H](CO)[C@@H](O)[C@H](O[C@@H]2O[C@H](CO)[C@@H](O)[C@H](O)[C@H]2O)[C@H]1O[C@@H]1O[C@H](CO)[C@@H](O)[C@H](O)[C@H]1O)C3` [REBA, rebaudioside A], the Sweetness linger rating in series [3] (control: 400 ppm REBA in citric acid/potassium citrate composition, no additive) was 5; in series [3] (control: 500 ppm REBA in carbon-treated water, phosphoric acid pH 2.4-2.5, no additive), 5. Also, the Sucrose equivalent in series [4] (180 ppm rebaudioside A in diluted beverage) is reported as 5 % sucrose; in series [4] (400 ppm REBA), 8 g sucrose.

For the origin of these results see patent US8435587B2, “High-potency sweetener composition with long-chain primary aliphatic saturated alcohol and compositions sweetened therewith” (The Coca-Cola Company, priority 2005, dated 2013).
